Tests used:
[1] = biological target: Glutamate receptor ionotropic, AMPA (Rattus norvegicus) (UniProt P19491+P19492+P19493+P19490); test: Displacement of [3H]AMPA from glutamate AMPA receptor in Wistar rat cerebral cortical membranes at 10 uM incubated for 90 mins by radiometric scintillation analysis relative to control
[2] = biological target: cAMP-dependent protein kinase catalytic subunit PRKX (Homo sapiens, UniProt P51817); test: Inhibition of recombinant full length human GST-tagged PRKX expressed in baculovirus expression system using serine/threonine-1 peptide as substrate incubated for 60 mins in presence of ATP by Z'-LYTE assay
[3] = biological target: Serine/threonine-protein kinase DCLK2 (Homo sapiens, UniProt Q8N568); test: Inhibition of recombinant full length human GST-tagged DCAMKL2 expressed in baculovirus expression system using serine/threonine-17 peptide as substrate incubated for 60 mins in presence of ATP by Z'-LYTE assay
[4] = biological target: CDK2/Cyclin A2 (Homo sapiens, UniProt P24941); test: Inhibition of recombinant full length human His-tagged CDK2/Cyclin A expressed in baculovirus expression system using serine/threonine-12 peptide as substrate incubated for 60 mins in presence of ATP by Z'-LYTE assay
[5] = species: Cavia porcellus; test: Displacement of [3H]nitrobenzylthioinosine from adenosine transporter in guinea pig cerebral cortical membranes at 10 uM after 30 mins by radiometric scintillation analysis relative to control
[6] = biological target: Serine/threonine-protein kinase MARK2 (Homo sapiens, UniProt Q7KZI7); test: Inhibition of recombinant full length human GST-tagged MARK2 expressed in baculovirus expression system using serine/threonine-21 peptide as substrate incubated for 60 mins in presence of ATP by Z'-LYTE assay
[7] = biological target: Dual specificity protein kinase CLK3 (Homo sapiens, UniProt P49761); test: Inhibition of recombinant full length human GST-tagged CLK3 expressed in baculovirus expression system using serine/threonine-18 peptide as substrate incubated for 60 mins in presence of ATP by Z'-LYTE assay
[8] = biological target: Mitogen-activated protein kinase 1 (Homo sapiens, UniProt P28482); test: Inhibition of recombinant full length human GST-tagged ERK2 expressed in Escherichia coli expression system using serine/threonine-3 peptide as substrate incubated for 60 mins in presence of ATP by Z'-LYTE assay
[9] = biological target: Phosphodiesterase 3 (Homo sapiens) (UniProt Q14432+Q13370); test: Inhibition of human platelet PDE3 at 10 uM using cAMP as substrate after 20 mins in presence of [3H]cAMP by radiometric scintillation assay relative to control
[10] = biological target: Glycogen synthase kinase-3 beta (Homo sapiens, UniProt P49841); test: Inhibition of recombinant full length human His-tagged GSK3beta expressed in baculovirus expression system using serine/threonine-9 peptide as substrate incubated for 60 mins in presence of ATP by Z'-LYTE assay
[11] = biological target: Serine/threonine-protein kinase TAO2 (Homo sapiens, UniProt Q9UL54); test: Inhibition of recombinant human GST-tagged TAO2 catalytic domain (1 to 314 residues) expressed in baculovirus expression system using serine/threonine-7 peptide as substrate incubated for 60 mins in presence of ATP by Z'-LYTE assay
[12] = biological target: Neuropeptide Y receptor type 2 (Homo sapiens) (UniProt P49146); test: Displacement of [[125I]peptide YY from full length human KAN-TS cell membrane derived Y2 neuropeptide receptor at 10 uM measured after 120 mins by radiometric scintillation analysis relative to control
[13] = biological target: Serine/threonine-protein kinase PAK 3 (Homo sapiens, UniProt O75914); test: Inhibition of recombinant full length human His-tagged PAK3 expressed in baculovirus expression system using serine/threonine-20 peptide as substrate incubated for 60 mins in presence of ATP by Z'-LYTE assay
[14] = biological target: Alpha-1B adrenergic receptor (Rattus norvegicus) (UniProt P15823); test: Displacement of [3H]prazosin from alpha1b adrenergic receptor in Wistar rat liver membranes at 10 uM measured after 60 mins by scintillation counting method relative to control; format: cell membranes; settings: Membrane
[15] = biological target: Ephrin type-A receptor 5 (Homo sapiens, UniProt P54756); test: Inhibition of recombinant human GST-tagged EPHA5 cytoplasmic domain expressed in baculovirus expression system using tyrosine-01 peptide as substrate incubated for 60 mins in presence of ATP by Z'-Lyte assay
[16] = biological target: G protein-coupled receptor kinase 6 (Homo sapiens, UniProt P43250); test: Inhibition of recombinant full length human GST-tagged GRK6 expressed in baculovirus expression system using serine/threonine-16 peptide as substrate incubated for 60 mins in presence of ATP by Z'-LYTE assay
[17] = biological target: Ephrin type-B receptor 4 (Homo sapiens, UniProt P54760); test: Inhibition of recombinant human His-tagged EPHB4 (561 to 987 residues) catalytic domain expressed in baculovirus expression system using tyrosine-01 peptide as substrate incubated for 60 mins in presence of ATP by Z'-LYTE assay
[18] = biological target: Casein kinase II subunit alpha (Homo sapiens, UniProt P68400); test: Inhibition of recombinant human full-length His-tagged CSNK2A1 expressed in baculovirus expression system using FRET-labeled Ser/Thr 11 peptide as substrate measured after 1 hr in presence of ATP by Z'-lyte assay
[19] = biological target: Androgen receptor (Homo sapiens) (UniProt P10275); test: Displacement of [3H]methyltrienolone from human LNCAP cells derived androgen receptor at 10 uM measured after 20 hrs by scintillation counting method relative to control; format: cell-based
[20] = biological target: Vasopressin V1a receptor (Homo sapiens) (UniProt P37288); test: Displacement of [125I]phenylacetylTyr(Me)PheGlnAsnArgProArgTyr from recombinant full length human V1A receptor expressed in HEK293 cells at 10 uM after 120 mins by radiometric scintillation analysis relative to control; format: cell-based
[21] = biological target: Calcium/calmodulin-dependent protein kinase type II subunit alpha (Homo sapiens, UniProt Q9UQM7); test: Inhibition of recombinant full length human His-tagged CAMK2alpha expressed in baculovirus expression system using serine/threonine-4 peptide as substrate incubated for 60 mins in presence of ATP by Z'-LYTE assay
[22] = Clearance in human liver microsomes; format: ADME, Microsome; settings: read-out: CLH
[23] = biological target: Tyrosine-protein kinase Fgr (Homo sapiens, UniProt P09769); test: Inhibition of recombinant full length human C-terminal His-tagged FGR expressed in baculovirus expression system using tyrosine-2 peptide as substrate incubated for 60 mins in presence of ATP by Z'-LYTE assay
[24] = species: Rattus norvegicus; test: Displacement of [3H]TBOB from GABAA chloride channel receptor in Wistar rat whole brain membranes at 10 uM measured after 120 mins by radiometric scintillation analysis relative to control; format: cell membranes; settings: Membrane
[25] = biological target: Serine/threonine-protein kinase MRCK beta (Homo sapiens, UniProt Q9Y5S2); test: Inhibition of recombinant human His-tagged MRCKB catalytic domain expressed in baculovirus expression system using serine/threonine-13 peptide as substrate incubated for 60 mins in presence of ATP by Z'-LYTE assay
[26] = biological target: MAP kinase-activated protein kinase 5 (Homo sapiens, UniProt Q8IW41); test: Inhibition of recombinant full length human His-tagged PRAK expressed in baculovirus expression system using serine/threonine-4 peptide as substrate incubated for 60 mins in presence of ATP by Z'-LYTE assay

Chain of cAMP-dependent protein kinase catalytic subunit PRKX (P51817 whole entry): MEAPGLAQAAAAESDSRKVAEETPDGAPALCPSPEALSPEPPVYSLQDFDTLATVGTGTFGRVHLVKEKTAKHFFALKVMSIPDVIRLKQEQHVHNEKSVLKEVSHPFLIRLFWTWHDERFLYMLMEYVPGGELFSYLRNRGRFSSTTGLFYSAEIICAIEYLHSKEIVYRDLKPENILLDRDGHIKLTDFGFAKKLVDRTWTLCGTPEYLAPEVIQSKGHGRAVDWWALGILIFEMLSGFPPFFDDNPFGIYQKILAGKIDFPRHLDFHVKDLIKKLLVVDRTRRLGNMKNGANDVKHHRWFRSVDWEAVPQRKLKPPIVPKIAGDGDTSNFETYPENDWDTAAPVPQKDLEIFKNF
Chain of Mitogen-activated protein kinase 1 (P28482 whole entry): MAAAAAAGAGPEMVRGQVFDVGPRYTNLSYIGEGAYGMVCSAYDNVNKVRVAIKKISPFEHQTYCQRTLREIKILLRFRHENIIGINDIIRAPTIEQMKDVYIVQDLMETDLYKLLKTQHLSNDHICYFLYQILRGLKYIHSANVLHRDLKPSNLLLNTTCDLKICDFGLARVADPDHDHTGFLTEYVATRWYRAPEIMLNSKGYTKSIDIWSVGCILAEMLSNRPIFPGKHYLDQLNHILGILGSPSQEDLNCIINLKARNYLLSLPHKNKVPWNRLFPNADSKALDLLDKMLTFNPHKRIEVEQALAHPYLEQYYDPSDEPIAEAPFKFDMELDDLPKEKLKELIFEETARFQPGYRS
Chain of Glycogen synthase kinase-3 beta (P49841 whole entry, the tested form may be a part): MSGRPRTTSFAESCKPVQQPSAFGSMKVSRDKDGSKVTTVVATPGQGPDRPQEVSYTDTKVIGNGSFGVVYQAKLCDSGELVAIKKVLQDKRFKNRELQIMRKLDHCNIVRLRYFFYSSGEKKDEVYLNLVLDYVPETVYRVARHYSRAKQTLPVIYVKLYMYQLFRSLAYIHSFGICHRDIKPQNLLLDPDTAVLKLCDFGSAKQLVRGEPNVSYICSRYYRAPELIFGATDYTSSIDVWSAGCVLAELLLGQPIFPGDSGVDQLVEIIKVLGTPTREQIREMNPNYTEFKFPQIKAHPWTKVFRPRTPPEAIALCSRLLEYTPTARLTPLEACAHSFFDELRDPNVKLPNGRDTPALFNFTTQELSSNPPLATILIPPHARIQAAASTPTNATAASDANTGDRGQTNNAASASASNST
Chain of Tyrosine-protein kinase Fgr (P09769 whole entry): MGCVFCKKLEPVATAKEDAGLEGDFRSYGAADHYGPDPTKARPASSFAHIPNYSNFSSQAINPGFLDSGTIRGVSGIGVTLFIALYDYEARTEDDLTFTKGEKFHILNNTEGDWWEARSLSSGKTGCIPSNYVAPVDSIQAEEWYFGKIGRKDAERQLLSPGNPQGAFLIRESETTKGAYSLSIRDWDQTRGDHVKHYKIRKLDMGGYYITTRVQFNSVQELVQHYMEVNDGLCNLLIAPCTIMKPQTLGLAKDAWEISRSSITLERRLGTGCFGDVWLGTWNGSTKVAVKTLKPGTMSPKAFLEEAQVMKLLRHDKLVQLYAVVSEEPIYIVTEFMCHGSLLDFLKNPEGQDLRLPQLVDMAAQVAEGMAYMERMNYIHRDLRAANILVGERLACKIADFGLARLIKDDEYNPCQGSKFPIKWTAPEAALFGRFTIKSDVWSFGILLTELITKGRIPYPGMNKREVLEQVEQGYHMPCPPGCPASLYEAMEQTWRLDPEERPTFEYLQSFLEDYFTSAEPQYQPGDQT
Chain of Calcium/calmodulin-dependent protein kinase type II subunit alpha (Q9UQM7 whole entry): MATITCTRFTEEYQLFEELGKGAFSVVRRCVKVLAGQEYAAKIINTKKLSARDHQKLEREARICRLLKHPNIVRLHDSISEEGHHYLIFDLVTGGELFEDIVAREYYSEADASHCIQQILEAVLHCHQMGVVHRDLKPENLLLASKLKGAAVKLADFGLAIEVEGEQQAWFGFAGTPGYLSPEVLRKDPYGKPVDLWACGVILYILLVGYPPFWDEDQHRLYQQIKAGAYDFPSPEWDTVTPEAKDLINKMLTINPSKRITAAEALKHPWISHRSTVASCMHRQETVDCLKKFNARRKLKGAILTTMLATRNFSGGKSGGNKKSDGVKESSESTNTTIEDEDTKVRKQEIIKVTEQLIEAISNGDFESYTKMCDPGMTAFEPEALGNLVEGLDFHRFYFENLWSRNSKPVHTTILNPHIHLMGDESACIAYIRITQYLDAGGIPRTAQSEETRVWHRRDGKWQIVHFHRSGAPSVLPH
Chain of Androgen receptor (Homo sapiens) (P10275 whole entry): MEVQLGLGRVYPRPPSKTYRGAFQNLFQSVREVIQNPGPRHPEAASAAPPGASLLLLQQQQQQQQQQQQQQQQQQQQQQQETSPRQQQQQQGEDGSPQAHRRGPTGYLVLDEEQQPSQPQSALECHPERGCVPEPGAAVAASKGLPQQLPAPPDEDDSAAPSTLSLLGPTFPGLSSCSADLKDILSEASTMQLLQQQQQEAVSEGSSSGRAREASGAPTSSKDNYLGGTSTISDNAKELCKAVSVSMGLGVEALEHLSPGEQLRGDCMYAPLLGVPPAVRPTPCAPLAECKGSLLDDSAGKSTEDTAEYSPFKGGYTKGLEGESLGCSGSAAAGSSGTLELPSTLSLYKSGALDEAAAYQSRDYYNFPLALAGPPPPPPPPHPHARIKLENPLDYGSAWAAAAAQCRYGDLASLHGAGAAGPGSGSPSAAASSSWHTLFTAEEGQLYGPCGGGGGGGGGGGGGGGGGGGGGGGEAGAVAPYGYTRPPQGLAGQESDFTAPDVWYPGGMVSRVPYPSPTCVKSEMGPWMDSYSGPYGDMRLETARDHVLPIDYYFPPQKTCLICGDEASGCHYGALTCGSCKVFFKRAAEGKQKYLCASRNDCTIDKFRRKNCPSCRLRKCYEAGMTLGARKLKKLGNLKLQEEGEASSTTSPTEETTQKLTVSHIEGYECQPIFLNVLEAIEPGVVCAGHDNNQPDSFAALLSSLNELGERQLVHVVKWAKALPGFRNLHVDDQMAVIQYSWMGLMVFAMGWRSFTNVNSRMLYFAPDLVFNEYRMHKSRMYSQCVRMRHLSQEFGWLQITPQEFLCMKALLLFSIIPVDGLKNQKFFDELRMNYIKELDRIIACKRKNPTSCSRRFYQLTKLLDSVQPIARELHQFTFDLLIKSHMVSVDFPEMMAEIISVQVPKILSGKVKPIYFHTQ
Chain of Serine/threonine-protein kinase MRCK beta (Q9Y5S2 whole entry, the tested form may be a part): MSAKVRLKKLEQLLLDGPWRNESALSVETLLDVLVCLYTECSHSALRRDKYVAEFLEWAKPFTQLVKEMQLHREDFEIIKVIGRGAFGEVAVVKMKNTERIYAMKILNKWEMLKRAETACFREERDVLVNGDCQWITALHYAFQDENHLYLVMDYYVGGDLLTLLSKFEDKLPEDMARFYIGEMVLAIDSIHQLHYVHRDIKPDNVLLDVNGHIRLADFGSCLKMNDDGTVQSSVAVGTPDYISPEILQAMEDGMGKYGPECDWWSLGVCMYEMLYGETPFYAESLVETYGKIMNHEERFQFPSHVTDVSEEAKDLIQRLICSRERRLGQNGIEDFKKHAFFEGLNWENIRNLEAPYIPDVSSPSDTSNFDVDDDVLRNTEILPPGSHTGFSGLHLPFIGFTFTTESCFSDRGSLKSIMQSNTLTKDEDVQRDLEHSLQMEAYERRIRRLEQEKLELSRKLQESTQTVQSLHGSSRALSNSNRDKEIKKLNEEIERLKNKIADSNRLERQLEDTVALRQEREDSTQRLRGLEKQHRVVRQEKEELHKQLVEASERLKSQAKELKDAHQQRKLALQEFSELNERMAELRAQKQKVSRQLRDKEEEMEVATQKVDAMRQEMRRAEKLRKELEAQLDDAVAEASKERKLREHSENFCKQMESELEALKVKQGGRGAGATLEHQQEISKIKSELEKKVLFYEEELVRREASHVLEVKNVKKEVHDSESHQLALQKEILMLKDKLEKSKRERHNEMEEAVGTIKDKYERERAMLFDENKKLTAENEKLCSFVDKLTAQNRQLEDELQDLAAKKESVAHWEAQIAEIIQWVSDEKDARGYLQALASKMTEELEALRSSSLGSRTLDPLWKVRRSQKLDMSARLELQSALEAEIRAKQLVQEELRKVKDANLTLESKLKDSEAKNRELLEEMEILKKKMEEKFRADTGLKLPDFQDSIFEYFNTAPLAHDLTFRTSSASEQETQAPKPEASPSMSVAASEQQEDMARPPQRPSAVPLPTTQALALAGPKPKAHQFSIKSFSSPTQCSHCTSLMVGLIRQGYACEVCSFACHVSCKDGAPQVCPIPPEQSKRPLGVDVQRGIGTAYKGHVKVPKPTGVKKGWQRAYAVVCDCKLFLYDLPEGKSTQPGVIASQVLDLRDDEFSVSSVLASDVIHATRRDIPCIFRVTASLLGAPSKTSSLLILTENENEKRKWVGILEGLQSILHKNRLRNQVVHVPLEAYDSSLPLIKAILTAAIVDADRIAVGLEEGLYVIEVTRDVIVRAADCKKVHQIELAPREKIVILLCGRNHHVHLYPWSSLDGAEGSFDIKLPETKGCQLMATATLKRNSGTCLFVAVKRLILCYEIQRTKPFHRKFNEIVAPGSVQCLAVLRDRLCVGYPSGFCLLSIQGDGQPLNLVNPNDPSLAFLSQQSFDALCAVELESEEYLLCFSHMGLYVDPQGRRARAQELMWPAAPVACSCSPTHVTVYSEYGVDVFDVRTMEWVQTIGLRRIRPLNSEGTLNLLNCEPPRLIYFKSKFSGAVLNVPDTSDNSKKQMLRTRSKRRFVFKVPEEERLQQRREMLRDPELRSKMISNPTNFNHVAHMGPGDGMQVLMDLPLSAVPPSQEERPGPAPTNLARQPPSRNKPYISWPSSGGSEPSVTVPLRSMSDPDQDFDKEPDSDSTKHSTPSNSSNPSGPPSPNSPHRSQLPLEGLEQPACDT

For `C[C@@H]1C[C@H]1C(=O)N1CCN(c2cnc(C#N)c(-c3cnn(C)c3)n2)C[C@H]1C`, the inhibition [1] was 7%, the IC50 [2] was greater than 100 µM and the IC50 [3] was greater than 100 µM. The IC50 [4] was greater than 100 µM, the inhibition [5] was 41% and the IC50 [6] was greater than 100 µM. For the same compound, the IC50 [7] was greater than 100 µM, the IC50 [8] was greater than 100 µM and the inhibition [9] was 21%. For the same compound, the IC50 [10] was 28.1 µM, the IC50 [11] was greater than 100 µM and the inhibition [12] was -2%. It also gave an IC50 [13] greater than 100 µM, an inhibition [14] of -1% and an IC50 [15] greater than 100 µM. It also gave an IC50 [16] greater than 100 µM, an IC50 [17] greater than 100 µM and an IC50 [18] greater than 100 µM. The inhibition [19] was 17%, the inhibition [20] was -3% and the IC50 [21] was greater than 100 µM. For the same compound, the CLint scaled [22] was less than 16 mL/min/kg, the IC50 [23] was 25.4 µM and the inhibition [24] was -8%. For the same compound, the IC50 [25] was greater than 100 µM and the IC50 [26] was greater than 100 µM.

Reference: ChEMBL document CHEMBL4602617, “Discovery and optimization of heteroaryl piperazines as potent and selective PI3Kδ inhibitors” (Bioorg Med Chem Lett, 2020)
